Test results published in the supplement of paper PMC10307832.

Legend:
Assay in all cases: relative viability (nuclei count vs DMSO), 5 days (fraction); higher = more cells survive
[1] = compound: CCc1cnn2c(NCc3ccc[n+]([O-])c3)cc(N3CCCC[C@H]3CCO)nc12 [Dinaciclib] + Cc1cc(Nc2cc(N3CCN(C)CC3)nc(Sc3ccc(NC(=O)C4CC4)cc3)n2)n[nH]1 [Tozasertib] (partner 0.1 µM)
Summary of the method: (§1)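 Lung cancer cell lines were pin-tool dosed in 1536-well plates on the day after seeding, with either a lone drug or a fixed anchor-drug dose plus five library-drug doses (not always all listed) in √10 steps. Nuclei were counted on 4× images after 5 days. Relative viability is the ratio of treated-well to vehicle-well nuclei counts, with each value a median of duplicate plates.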

[2] = compound: CCc1cnn2c(NCc3ccc[n+]([O-])c3)cc(N3CCCC[C@H]3CCO)nc12 [Dinaciclib] + CC(C)C[C@H](NC(=O)[C@H](Cc1ccccc1)NC(=O)c1cnccn1)B(O)O [Bortezomib] (partner 0.002 µM)
Summary of the method: as §1

[3] = compound: CCc1cnn2c(NCc3ccc[n+]([O-])c3)cc(N3CCCC[C@H]3CCO)nc12 [Dinaciclib] + Nc1nc2[nH]cc(CCc3ccc(C(=O)N[C@@H](CCC(=O)O)C(=O)O)cc3)c2c(=O)[nH]1 [Pemetrexed] (partner 0.2 µM)
Summary of the method: as §1

[4] = compound: CCc1cnn2c(NCc3ccc[n+]([O-])c3)cc(N3CCCC[C@H]3CCO)nc12 [Dinaciclib] + COc1cccc2cc(-c3nc([C@H]4CC[C@H](C(=O)O)CC4)n4ncnc(N)c34)[nH]c12 [OSI-027] (partner 0.5 µM)
Summary of the method: as §1

[5] = compound: CCc1cnn2c(NCc3ccc[n+]([O-])c3)cc(N3CCCC[C@H]3CCO)nc12 [Dinaciclib] + CC(=O)c1c(C)c2cnc(Nc3ccc(N4CCNCC4)cn3)nc2n(C2CCCC2)c1=O [Palbociclib] (partner 0.5 µM)
Summary of the method: as §1

Cell Line	relative viability ([1]; first compound 0.009487 µM)	relative viability ([1]; first compound 0.03 µM)	relative viability ([1]; first compound 0.09487 µM)	relative viability ([1]; first compound 0.3 µM)	relative viability ([2]; first compound 0.009487 µM)	relative viability ([2]; first compound 0.03 µM)	relative viability ([2]; first compound 0.09487 µM)	relative viability ([2]; first compound 0.3 µM)	relative viability ([3]; first compound 0.009487 µM)	relative viability ([3]; first compound 0.03 µM)	relative viability ([3]; first compound 0.09487 µM)	relative viability ([3]; first compound 0.3 µM)	relative viability ([4]; first compound 0.009487 µM)	relative viability ([4]; first compound 0.03 µM)	relative viability ([4]; first compound 0.09487 µM)	relative viability ([4]; first compound 0.3 µM)	relative viability ([5]; first compound 0.009487 µM)	relative viability ([5]; first compound 0.03 µM)	relative viability ([5]; first compound 0.09487 µM)	relative viability ([5]; first compound 0.3 µM)
NCI-H1666	0.586	0.284	0.275	0.276	0.528	0.19	0.164	0.18	0.933	0.399	0.504	0.491	0.857	0.484	0.375	0.346	0.672	0.442	0.6	0.541
NCI-H2405	0.619	0.2	0.213	0.208	0.904	0.761	0.207	0.271	0.803	0.247	0.213	0.209	0.625	0.409	0.226	0.198	0.542	0.22	0.199	0.188
NCI-H2009	0.599	0.231	0.112	0.106	0.88	0.101	0.069	0.0948	0.977	0.459	0.0817	0.0842	0.528	0.0935	0.11	0.107	0.243	0.0729	0.0659	0.057
HCC-78	0.345	0.282	0.144	0.138	0.61	0.169	0.133	0.122	0.895	0.91	0.858	0.927	0.349	0.347	0.205	0.193	0.432	0.374	0.253	0.3
NCI-H2170	0.721	0.171	0.144	0.143					0.292	0.133	0.125	0.119	0.741	0.156	0.152	0.14	0.387	0.122	0.103	0.117
NCI-H1793	0.284	0.13	0.131	0.103					0.63	0.139	0.142	0.13	0.268	0.13	0.107	0.123	0.251	0.168	0.131	0.135
ABC-1	0.199	0.174	0.11	0.0868	0.231	0.179	0.167	0.157					0.329	0.123	0.104	0.118	0.648	0.334	0.212	0.246
NCI-H1703					0.366	0.122	0.132	0.114												
NCI-H522	0.488	0.418	0.372	0.278					1.32	1.14	0.371	0.25	0.76	0.517	0.439	0.382	1.19	0.855	0.316	0.255
NCI-H2342	0.491	0.468	0.231	0.203					0.851	0.56	0.3	0.274	0.559	0.532	0.32	0.315	0.475	0.575	0.447	0.271
SW 900	0.707	0.149	0.0868	0.0829					0.448	0.195	0.166	0.153	0.578	0.103	0.0689	0.098	0.57	0.318	0.13	0.158
NCI-H727	0.538	0.287	0.276	0.282	0.869	0.231	0.217	0.238					0.468	0.317	0.285	0.326	0.633	0.38	0.361	0.383
NCI-H1792					0.925	0.741	0.238	0.0774	0.561	0.14	0.0501	0.0374	0.729	0.539	0.36	0.174	0.677	0.365	0.217	0.152
IA-LM					0.72	0.0186	0.019	0.014												
NCI-H358	0.103	0.0813	0.0924	0.0857					0.186	0.108	0.0948	0.0955	0.49	0.0844	0.0665	0.0776	0.142	0.095	0.0882	0.096
NCI-H596	0.853	0.456	0.176	0.164	1.22	0.563	0.263	0.239	0.404	0.396	0.24	0.225	0.787	0.665	0.392	0.153				
NCI-H1563					1.13	0.485	0.368	0.387	0.704	0.393	0.161	0.13	0.795	0.416	0.297	0.27				
